Reference: patent US10086082B2, “Plant steroids and uses thereof” (DAVIDSON LOPEZ LLC, priority 2011, dated 2018)

System: Caco-2 cells
Assay: Gene expression profiling of Caco-2 cells treated with compounds (Illumina HT-12 arrays, Volcano plots)
Format: cell-based, human
Conditions: gene array; for Interleukin-1, beta gene regulation: 24 hours exposure
Procedure: Gene expression profiles were generated from 2.5 μM and 25 μM treatments of Caco-2 cells (ATCC).
All compounds were individually applied to Caco-2 cells (250,000/well). After RNA isolation of each treatment, the isolated RNAs were individually labeled as cDNA probes and applied to Illumina HT-12 array chips.
Key Genes Affected per Gene Class: Using the Inforsense Suite of Data Analysis tool (IDBS), a total of 36 Volcano plots were generated against 36 gene array assays (triplicate array assays per nontreatment and treatment of compounds). […] Genes were identified on both sides of the volcano plots (shaded in gray in FIG. 2) that were at a correlation coefficient of p<0.05.
The human colon adenocarcinoma cell line Caco-2 was cultured in Dulbecco's Modified Eagle's Medium (Sigma-Aldrich) with 4.5 g/l glucose, L-glutamine, NaHCO3 and pyridoxine HCl supplemented with 1% (vol/vol) nonessential amino acids, 1% Na-pyruvate, 1% penicillin/streptomycin, and 10% (vol/vol) heat inactivated fetal calf serum, all purchased from Gibco BRL. Cell cultures were transferred weekly by trypsinization and incubated at 37° C. in a humidified incubator containing 5% CO2. […] Cells were exposed to each compound, respectively, for 24 hours.
Total RNA was isolated according to the TRIzol manufacturer's instructions (Invitrogen). RNA quality was assessed with a 2100 Bioanalyzer (Agilent). RNA from pooled triplicates of the various cell treatments, all with an RNA integrity number >7, was further purified with Qiagen RNeasy columns. From 300 ng of total RNA, the Illumina TotalPrep RNA Amplification kit (Ambion) was used to generate amplified biotinylated cRNA after reverse transcription by the Eberwine procedure. cRNA (900 ng) was hybridized overnight to Illumina HT-12 BeadArrays, which were then washed and stained with streptavidin-Cy3 (Amersham-Pharmacia Biotech) according to the Illumina protocol. Arrays were scanned on a BeadArray Reader (Illumina).
Specific transcripts within the biotinylated cRNA were measured by fluorescent imaging after direct hybridization to HT-12 bead arrays, which contain 12 arrays per slide, each with an average of 15 beads for each of 48,803 probes measuring 37,846 annotated genes and additional transcripts. Raw measurements of the intensity of each bead were captured directly and processed as “bead-level” for the samples, as described below. For both treated and non-treated samples, measurements were processed as “probe-level” data by GenomeStudio software (Illumina). […]

Row | Molecule | Interleukin-1, beta gene regulation | interleukin receptor and interleukins affected | similarity of gene profile to prednisone
1 | CC[C@H](/C=C/[C@@H](C)[C@H]1CC[C@H]2[C@@H]3CC=C4C[C@@H](OC(=O)CCC(=O)OCC(=O)[C@@]5(O)CC[C@H]6[C@@H]7CCC8=CC(=O)C=C[C@]8(C)[C@H]7[C@@H](O)C[C@@]65C)CC[C@]4(C)[C@H]3CC[C@]12C)C(C)C [SE-24, Stigmasterol Prednisolone Succinate Diester] | up-regulated | affected | more similar gene profiles to prednisone
2 | Stigmasterol Triethyleneglycol Prednisolone Succinate [SE-22] | up-regulated | – | –
